The text below walks through data of patent US11529354B2, “Methods and compositions for the treatment of tuberculosis” (PRESIDENT AND FELLOWS OF HARVARD COLLEGE, priority 2017, dated 2022).

≈ marks a conversion by molar mass, not a printed value. Like-named read-outs stand apart in the source and are kept apart here.

Experiment [1] concerns MDR-MTB isolates LZ94 and LZ99. Nature of the experiment: microbe, parasite or virus in culture. Format: cell-based, Mycobacterium tuberculosis.
In experiment [2] the test system is clinical Mycobacterium tuberculosis strains (HrRr: 77#, 76#, 80#). The experiment is described as follows: microbe, parasite or virus in culture. Format: cell-based. To be noted: for MIC: Mycobacterium tuberculosis.
Setting [3] is: Mycobacterium tuberculosis, read-out: MIC.

Turning to `Cn1ccc(=Nc2ccc(NC(=O)c3ccc(N=c4ccn(C)c5ccc([N+](=O)[O-])cc45)cc3)cc2)cc1` [NSC 260594, 4-[(1-methyl-6-nitroquinolin-4-ylidene)amino]-N-[4-[(1-methylpyridin-4-ylidene)amino]phenyl]benzamide], the MIC was found to be 1.25 µg/mL (≈ 2.48 µM) in experiment [1]; 0.625 µg/mL (≈ 1.24 µM) in experiment [1] (Mycobacterium tuberculosis, Table 7 and text, […], read-out: MIC); 0.625 µg/mL (≈ 1.24 µM) in experiment [1] (setting [3]); 1.25 µg/mL (≈ 2.48 µM) in experiment [1] (Table 7 and text, […], listed as Formula XI).

`Cc1ccc2[nH]c3c(c2c1)CCCC3NCc1ccccc1` (stereo not shown) [CAS 118498-98-9, N-benzyl-6-methyl-2,3,4,9-tetrahydro-1H-carbazol-1-amine]: in experiment [2], the “concentration increase required to inhibit the drug resistant strains” value is listed as “four-fold”. In addition, the MIC is 3.2 µg/mL (≈ 11 µM) in experiment [2]; 25.6 µg/mL (≈ 88.2 µM) in experiment [2] (strain 76#, HrRr); 25.6 µg/mL (≈ 88.2 µM) in experiment [2] (strain 80#, HrRr).

Take `CO[C@@H]1[C@@H](OC(=O)c2ccc(C)[nH]2)[C@@H](O)[C@H](Oc2ccc3c(O)c(NC(=O)c4ccc(O)c(CC=C(C)C)c4)c(=O)oc3c2Cl)OC1(C)C` [NSC 227186, [(3R,4S,5R,6S)-6-[8-chloro-4-hydroxy-3-[[4-hydroxy-3-(3-methylbut-2-enyl)benzoyl]amino]-2-oxochromen-7-yl]oxy-5-hydroxy-3-methoxy-2,2-dimethyloxan-4-yl]5-methyl-1H-pyrrole-2-carboxylate]: the MIC in experiment [1] (setting [3]) is 0.625 µg/mL (≈ 0.897 µM).

Turning to `CO[C@H]1/C=C/O[C@@]2(C)Oc3c(C)c(O)c4c(O)c(c(/C=N/N5CCN(C)CC5)c(O)c4c3C2=O)NC(=O)/C(C)=C\C=C\[C@H](C)[C@H](O)[C@@H](C)[C@@H](O)[C@@H](C)[C@H](OC(C)=O)[C@@H]1C` [Rifampicin, reference compound], the MIC in experiment [1] (Mycobacterium tuberculosis) came to 2 µg/mL (≈ 2.43 µM).
